Data from patent US20240400591A1 (Jacobio Pharmaceuticals Co., Ltd., priority 2021, published 2024).
Like-named read-outs stand apart in the source and are kept apart here.

Tests used:
NUGC4 (P53 WT) = assay: Cell viability assay (CellTiter-Glo, 6 days), NUGC4; format: cell-based; details: cell viability, 6 days, CellTiter-Glo, read-out: NUGC4 (P53 WT) IC50
Method in brief: (§1)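 After a 6-day compound exposure following overnight plating, ATP luminescence (CellTiter-Glo) gave percent viability relative to DMSO-treated cells and cell-free medium controls. IC50 = concentration at 50% viability, from 4-parameter logistic or Excel fit.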

[1] = test system: NUGC-3_P53_Luc single clonal cell line (p53 Y220C); assay: Reporter gene assay (p53 RE luciferase); format: cell-based; details: luciferase reporter, 6 hours, normalized to Ref-1a (10 μM) high control, read-out: p53(Y220C)_NUGC-3 EC50
Method in brief: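 Luminescence normalised to DMSO-only (0%) and 10 μM Ref-1a (100%) wells gives % activity, fitted by 4-parameter logistic or Excel to yield EC50 at 50%. Reporter line: NUGC-3 with p53 response element-luc2P, compound-treated 6 h at 37 °C.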

[2] = target: T1, His-p53 Y220C (94-294) protein (Homo sapiens, UniProt P04637, Y220C); assay: In vitro DNA binding assay (HTRF); format: biochemical; details: % activation normalized to 2 μM Ref-1a high control
T1 construct: His-p53 Y220C (94-294) protein

NUGC3 (P53 Y220C) = assay: Cell viability assay (CellTiter-Glo, 6 days), NUGC3; format: cell-based; details: cell viability, 6 days, CellTiter-Glo, read-out: NUGC3 (P53 Y220C) IC50
Method in brief: as §1

SMILES	IC50 (NUGC4 (P53 WT); Homo sapiens, NUGC-4, 144 h)	EC50 ([1]; Homo sapiens, NUGC-3, 6 h)	EC50 [2]	IC50 (NUGC3 (P53 Y220C); Homo sapiens, NUGC-3, 144 h)	EC50 ([1]; Homo sapiens, NUGC-3)	IC50 (NUGC4 (P53 WT))	EC50 [1]	IC50 (NUGC3 (P53 Y220C))
CCN1CC[C@@H](Nc2cccc3c(CC(F)(F)F)c(C#CCNc4ccc(P(C)(C)=O)cc4OC)sc23)[C@@H](F)C1 [Example 135, (4-((3-(7-(((3S,4R)-1-ethyl-3-fluoropiperidin-4-yl)amino)-3-(2,2,2-trifluoroethyl)benzo[b]thiophen-2-yl)prop-2-yn-1-yl)amino)-3-methoxyphenyl)dimethylphosphine oxide]	3620 nM	40 nM	26 nM	1160 nM				
CNC(=O)c1cc(NCC#Cc2sc3c(NC4CCN(C)CC4F)cccc3c2CC(F)(F)F)c(OC)cc1P(C)(C)=O (racemic) [Example 109, 2-dimethylphosphoryl-5-[3-[7-[((Z)-3-fluoro-1-methyl-4-piperidyl)amino]-3-(2,2,2-trifluoroethyl)benzothiophen-2-yl]prop-2-ynylamino]-4-methoxy-N-methyl-benzamide]	47700 nM		33 nM	1190 nM	120 nM			
COc1cc([S@@](C)(=N)=O)ccc1NCC#Cc1sc2c(N[C@@H]3CCN(C)C[C@@H]3F)cccc2c1CC(F)(F)F [Example 226, (S)-(4-((3-(7-(((3S,4R)-3-fluoro-1-methylpiperidin-4-yl)amino)-3-(2,2,2-trifluoroethyl)benzo[b]thiophen-2-yl)prop-2-yn-1-yl)amino)-3-methoxyphenyl)(imino)(methyl)-16-sulfanone]			39 nM			19400 nM	50 nM	320 nM
COc1cc(P(C)(C)=O)ccc1NCC#Cc1sc2c(NC3[C@@H]4COC[C@H]3CN(C)C4)cccc2c1CC(F)(F)F (single isomer, unassigned) [Example 196]	18600 nM	660 nM	67 nM	6710 nM				
CNC(=O)c1ccc(NCC#Cc2sc3c(N[C@H]4CCN(C)C[C@H]4F)cccc3c2CC(F)(F)F)c(OC)c1 (racemic) [Example 41, 4-((3-(7-(((3R,4S)-3-fluoro-1-methylpiperidin-4-yl)amino)-3-(2,2,2-trifluoroethyl)benzo[b]thiophen-2-yl)prop-2-yn-1-yl)amino)-3-methoxy-N-methylbenzamide]	6140 nM		57 nM	1540 nM	600 nM			
COc1cc(C(N)=O)ccc1NCC#Cc1sc2c(NC3CCN(C)CC3F)cccc2c1CC(F)(F)F (stereo not shown) [Example 46, 4-((3-(7-(((Z)-3-fluoro-1-methylpiperidin-4-yl)amino)-3-(2,2,2-trifluoroethyl)benzo[b]thiophen-2-yl)prop-2-yn-1-yl)amino)-3-methoxybenzamide]			47 nM			10500 nM	170 nM	1350 nM
COc1cc(P(C)(C)=O)ccc1NCC#Cc1sc2c(N[C@@H]3CCN(C4CCOCC4)C[C@@H]3F)cccc2c1CC(F)(F)F (racemic) [Example 73, (Z)-(4-((3-(7-((3-fluoro-1-(tetrahydro-2H-pyran-4-yl)piperidin-4-yl)amino)-3-(2,2,2-trifluoroethyl)benzo[b]thiophen-2-yl)prop-2-yn-1-yl)amino)-3-methoxyphenyl)dimethylphosphine oxide]	3420 nM		70 nM	770 nM	130 nM			
CCN1CC[C@H](Nc2cccc3c(CC(F)(F)F)c(C#CCNc4ccc(P(C)(C)=O)cc4OC)sc23)[C@H](F)C1 [Example 136, (4-((3-(7-(((3R,4S)-1-ethyl-3-fluoropiperidin-4-yl)amino)-3-(2,2,2-trifluoroethyl)benzo[b]thiophen-2-yl)prop-2-yn-1-yl)amino)-3-methoxyphenyl)dimethylphosphine oxide]	4880 nM	240 nM	46 nM	1630 nM				
CN1CCC(Nc2cccc3c(CC(F)(F)F)c(C#CCNc4ccc(P(C)(C)=O)c5c4OCC5)sc23)C(F)C1 (stereo not shown) [Example 152, (7-((3-(7-(((Z)-3-fluoro-1-methylpiperidin-4-yl)amino)-3-(2,2,2-trifluoroethyl)benzo[b]thiophen-2-yl)prop-2-yn-1-yl)amino)-2,3-dihydrobenzofuran-4-yl)dimethylphosphine oxide]			19 nM			6690 nM	120 nM	1020 nM
CN1CC[C@@H](Nc2cccc3c(CC(F)(F)F)c(C#CCNC(=O)c4cnn(C(C)(C)C)c4)sc23)[C@@H](F)C1 (racemic) [Example 129, 1-(tert-butyl)-N-(3-(7-(((Z)-3-fluoro-1-methylpiperidin-4-yl)amino)-3-(2,2,2-trifluoroethyl)benzo[b]thiophen-2-yl)prop-2-yn-1-yl)-1H-pyrazole-4-carboxamide]	8950 nM		69 nM	1850 nM	180 nM			
